The source of these data is ChEMBL document CHEMBL3400003, “Isoindoline-1,3-dione derivatives targeting cholinesterases: design, synthesis and biological evaluation of potential anti-Alzheimer's agents” (Bioorg Med Chem, 2015).

Molecules are shown by their SMILES.

Cholinesterase (Equus caballus), sequence (P81908 whole entry): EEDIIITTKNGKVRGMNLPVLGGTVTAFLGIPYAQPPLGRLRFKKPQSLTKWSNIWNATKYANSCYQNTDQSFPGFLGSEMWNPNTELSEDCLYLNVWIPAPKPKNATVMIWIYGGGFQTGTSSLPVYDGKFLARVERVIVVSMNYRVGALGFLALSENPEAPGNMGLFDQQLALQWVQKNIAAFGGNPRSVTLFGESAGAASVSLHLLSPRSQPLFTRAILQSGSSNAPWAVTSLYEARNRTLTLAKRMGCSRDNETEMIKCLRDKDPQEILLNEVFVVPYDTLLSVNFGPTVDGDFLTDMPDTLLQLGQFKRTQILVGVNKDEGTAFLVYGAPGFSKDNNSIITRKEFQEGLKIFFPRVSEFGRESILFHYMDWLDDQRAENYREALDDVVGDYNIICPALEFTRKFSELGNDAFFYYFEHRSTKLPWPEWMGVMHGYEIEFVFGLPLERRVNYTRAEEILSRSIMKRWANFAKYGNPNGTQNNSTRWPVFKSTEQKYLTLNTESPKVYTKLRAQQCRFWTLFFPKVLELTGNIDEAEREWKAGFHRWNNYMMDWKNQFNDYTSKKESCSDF

Tested on in the first series: not given
Conditions: PAMPA.
Regarding `CC(=O)[C@H]1CC[C@H]2[C@@H]3CCC4=CC(=O)CC[C@]4(C)[C@H]3CC[C@]12C` [PROGESTERONE], the “log Pe” value is on record as -5.1.

The target in the next series is Acetylcholinesterase (Electrophorus electricus, UniProt O42275).
Acetylcholinesterase (Electrophorus electricus, UniProt O42275), sequence (O42275 whole entry): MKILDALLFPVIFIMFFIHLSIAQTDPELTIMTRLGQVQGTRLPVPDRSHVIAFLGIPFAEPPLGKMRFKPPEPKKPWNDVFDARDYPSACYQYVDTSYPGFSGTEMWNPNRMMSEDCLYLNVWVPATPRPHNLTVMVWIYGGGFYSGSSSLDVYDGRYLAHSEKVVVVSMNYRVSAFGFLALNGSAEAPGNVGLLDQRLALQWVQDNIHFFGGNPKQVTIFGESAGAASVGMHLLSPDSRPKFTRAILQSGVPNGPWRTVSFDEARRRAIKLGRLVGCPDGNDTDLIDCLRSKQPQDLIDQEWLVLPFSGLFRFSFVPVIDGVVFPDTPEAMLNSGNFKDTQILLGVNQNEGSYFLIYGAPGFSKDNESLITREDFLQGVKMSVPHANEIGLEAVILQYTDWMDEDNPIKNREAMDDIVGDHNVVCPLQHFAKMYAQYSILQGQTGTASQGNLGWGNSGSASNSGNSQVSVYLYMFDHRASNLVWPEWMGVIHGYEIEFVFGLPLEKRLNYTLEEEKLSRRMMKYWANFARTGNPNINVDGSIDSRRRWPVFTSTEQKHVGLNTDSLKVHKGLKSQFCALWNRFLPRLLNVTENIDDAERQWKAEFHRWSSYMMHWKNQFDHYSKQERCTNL
Conditions: not given
What is called IC50 is the concentration that inhibits the measured activity by half. Turning to `CN(CCCCCCN1C(=O)c2ccccc2C1=O)Cc1ccccc1F`, the 50% inhibitory concentration (IC50) turned out to be 75 nM.
Consider `CN(CCCCCCCN1C(=O)c2ccccc2C1=O)Cc1cccc(Cl)c1`, for which the half-maximal inhibitory concentration (IC50) was 500 nM.
Same read-out and setting: for `CN(CCCCCN1C(=O)c2ccccc2C1=O)Cc1ccccc1F` the value was 67 nM; for `CN(CCCCCCCCN1C(=O)c2ccccc2C1=O)Cc1cccc(Cl)c1`, 1360 nM; for `CN(CCCCN1C(=O)c2ccccc2C1=O)Cc1cccc(Cl)c1`, 1430 nM.
As for `CN(CCCCCCCN1C(=O)c2ccccc2C1=O)Cc1ccccc1`, the half-maximal inhibitory concentration (IC50) came to 172 nM.
Molecule `CN(CCCCCCN1C(=O)c2ccccc2C1=O)Cc1cccc(Cl)c1` showed an IC50 of 95 nM.
Molecule `O=C1c2ccccc2C(=O)N1Cc1ccc(CNCc2cccc(Cl)c2)cc1` displayed an IC50 of 6310 nM.
The same measure, in the same setting: for `CN(CCCCCN1C(=O)c2ccccc2C1=O)Cc1cccc(Cl)c1` the value was 110 nM; for `O=C1c2ccccc2C(=O)N1Cc1ccc(CNCc2ccccc2F)cc1`, 2580 nM.
Same read-out and setting: for `CN(CCCCCCN1C(=O)c2ccccc2C1=O)Cc1ccccc1` the value was 89 nM.
`CN(CCCCCCCCN1C(=O)c2ccccc2C1=O)Cc1ccccc1` gave a half-maximal inhibitory concentration (IC50) of 139 nM.
On the same count and under the same terms, to `CN(CCCCCCCCN1C(=O)c2ccccc2C1=O)Cc1ccccc1F` belongs 661 nM; to `CN(CCCCN1C(=O)c2ccccc2C1=O)Cc1ccccc1F`, 1520 nM.
Molecule `CN(CCCCCCCN1C(=O)c2ccccc2C1=O)Cc1ccccc1F` had a 50% inhibitory concentration (IC50) of 525 nM.
The molecule `CN(CCCCN1C(=O)c2ccccc2C1=O)Cc1ccccc1` registered a concentration for half-maximal inhibition (IC50) of 2330 nM.
On to `CN(CCCCCN1C(=O)c2ccccc2C1=O)Cc1ccccc1`, for which inhibition was half-maximal at 80 nM (IC50).

The next series addresses Cholinesterase (Equus caballus) (UniProt P81908). The series can be described thus: Inhibition of BuChE in horse serum at 10 uM pre-incubated for 5 mins before addition of butyrylthiocholine iodide substrate by Ellman's assay.
Conditions: not given
For orientation: Ellman's reagent forms a yellow product with free thiols.
As a reminder, the inhibition is the share of the control response that was lost under treatment. For the molecule `CN(CCCCCN1C(=O)c2ccccc2C1=O)Cc1ccccc1F`, the inhibition was under 50%.
Regarding `CN(CCCCN1C(=O)c2ccccc2C1=O)Cc1cccc(Cl)c1`, the inhibition was under 50%.
Consider `CN(CCCCCCN1C(=O)c2ccccc2C1=O)Cc1ccccc1`, for which the inhibition is under 50%.
`CN(CCCCN1C(=O)c2ccccc2C1=O)Cc1ccccc1F` came in with an inhibition of under 50%.
Same read-out and setting: to `CN(CCCCN1C(=O)c2ccccc2C1=O)Cc1ccccc1` belongs under 50%; to `CN(CCCCCN1C(=O)c2ccccc2C1=O)Cc1ccccc1`, under 50%.

In another series the target is Cholinesterase (Equus caballus, UniProt P81908).
Cholinesterase, sequence (P81908 whole entry): as the sequence (P81908 whole entry) above
Conditions: not given
`CN(CCCCCCN1C(=O)c2ccccc2C1=O)Cc1ccccc1F`: the 50% inhibitory concentration (IC50) is 10500 nM.
As for `CN(CCCCCCCN1C(=O)c2ccccc2C1=O)Cc1cccc(Cl)c1`, the concentration for half-maximal inhibition (IC50) was 1500 nM.
In turn, `CN(CCCCCCCCN1C(=O)c2ccccc2C1=O)Cc1cccc(Cl)c1` displayed an IC50 of 909 nM.
Molecule `O=C1c2ccccc2C(=O)N1Cc1ccc(CNCc2ccccc2)cc1` yielded an IC50 of 2080 nM.
The same measure, in the same setting: for `CN(CCCCCCCN1C(=O)c2ccccc2C1=O)Cc1ccccc1` the value was 1010 nM.
For the molecule `CN(CCCCCCN1C(=O)c2ccccc2C1=O)Cc1cccc(Cl)c1`, the 50% inhibitory concentration (IC50) was 2440 nM.
In turn, `O=C1c2ccccc2C(=O)N1Cc1ccc(CNCc2cccc(Cl)c2)cc1` came in with an IC50 of 1320 nM.
On the same count and under the same terms, to `CN(CCCCCN1C(=O)c2ccccc2C1=O)Cc1cccc(Cl)c1` belongs 5830 nM; to `O=C1c2ccccc2C(=O)N1Cc1ccc(CNCc2ccccc2F)cc1`, 2900 nM.
`CN(CCCCCCCCN1C(=O)c2ccccc2C1=O)Cc1ccccc1`: half-maximal inhibition (IC50) required 543 nM.
The molecule `CN(CCCCCCCCN1C(=O)c2ccccc2C1=O)Cc1ccccc1F` registered an IC50 of 4680 nM.
`CN(CCCCCCCN1C(=O)c2ccccc2C1=O)Cc1ccccc1F` came in with an IC50 of 7160 nM.

The target in the next series is Amyloid-beta precursor protein (Homo sapiens) (UniProt P05067). The experiment in a line: Inhibition of recombinant human HFIP-pretreated Amyloid beta (1 to 42) (unknown origin) self-induced aggregation at 10 uM after 24 hrs by thioflavin T-based fluorometric assay.
Amyloid-beta precursor protein (Homo sapiens), sequence (P05067 whole entry): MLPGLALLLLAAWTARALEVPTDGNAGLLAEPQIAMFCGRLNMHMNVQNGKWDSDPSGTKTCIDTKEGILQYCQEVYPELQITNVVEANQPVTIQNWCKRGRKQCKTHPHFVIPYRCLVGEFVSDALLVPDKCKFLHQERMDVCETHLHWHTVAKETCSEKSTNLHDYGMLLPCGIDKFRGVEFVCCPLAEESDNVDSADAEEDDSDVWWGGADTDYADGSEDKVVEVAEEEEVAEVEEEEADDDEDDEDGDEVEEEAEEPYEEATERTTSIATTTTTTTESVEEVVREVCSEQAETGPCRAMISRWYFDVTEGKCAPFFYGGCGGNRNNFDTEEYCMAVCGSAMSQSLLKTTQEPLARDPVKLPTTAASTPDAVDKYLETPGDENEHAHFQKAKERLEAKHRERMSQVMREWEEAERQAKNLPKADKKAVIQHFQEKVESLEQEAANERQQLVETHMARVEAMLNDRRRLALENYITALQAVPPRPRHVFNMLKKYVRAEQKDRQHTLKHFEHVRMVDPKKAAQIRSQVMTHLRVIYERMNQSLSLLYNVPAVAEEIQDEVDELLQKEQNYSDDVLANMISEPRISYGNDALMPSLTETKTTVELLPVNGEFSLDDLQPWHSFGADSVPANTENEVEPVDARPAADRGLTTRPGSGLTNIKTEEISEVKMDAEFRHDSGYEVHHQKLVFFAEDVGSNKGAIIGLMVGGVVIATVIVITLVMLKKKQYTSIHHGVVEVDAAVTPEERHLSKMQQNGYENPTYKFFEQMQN
Conditions: not given
Turning to `CN(CCCCCCN1C(=O)c2ccccc2C1=O)Cc1ccccc1F`, the inhibition is under 5%.
As for `CN(CCCCCCCN1C(=O)c2ccccc2C1=O)Cc1cccc(Cl)c1`, the inhibition is under 5%.
Turning to `CN(CCCCCN1C(=O)c2ccccc2C1=O)Cc1ccccc1F`, the inhibition was under 5%.
With `CN(CCCCCCCCN1C(=O)c2ccccc2C1=O)Cc1cccc(Cl)c1`, the inhibition is under 5%.
`O=C1c2ccccc2C(=O)N1Cc1ccc(CNCc2ccccc2)cc1`: the inhibition is under 5%.
Same read-out and setting: for `CN(CCCCN1C(=O)c2ccccc2C1=O)Cc1cccc(Cl)c1` the value was under 5%; for `CN(CCCCCCCN1C(=O)c2ccccc2C1=O)Cc1ccccc1`, under 5%.
`CN(CCCCCCN1C(=O)c2ccccc2C1=O)Cc1cccc(Cl)c1`: the inhibition is under 5%.
Regarding `O=C1c2ccccc2C(=O)N1Cc1ccc(CNCc2cccc(Cl)c2)cc1`, the inhibition was under 5%.
Regarding `CN(CCCCCN1C(=O)c2ccccc2C1=O)Cc1cccc(Cl)c1`, the inhibition is under 5%.
For the molecule `O=C1c2ccccc2C(=O)N1Cc1ccc(CNCc2ccccc2F)cc1`, the inhibition is under 5%.
For the molecule `CN(CCCCCCN1C(=O)c2ccccc2C1=O)Cc1ccccc1`, the inhibition is under 5%.
For the molecule `CN(CCCCCCCCN1C(=O)c2ccccc2C1=O)Cc1ccccc1`, the inhibition was under 5%.
Take `CN(CCCCCCCCN1C(=O)c2ccccc2C1=O)Cc1ccccc1F`: the inhibition is under 5%.
The same measure, in the same setting: to `CN(CCCCN1C(=O)c2ccccc2C1=O)Cc1ccccc1F` belongs under 5%.
Same read-out and setting: for `CN(CCCCCCCN1C(=O)c2ccccc2C1=O)Cc1ccccc1F` the value was under 5%; for `CN(CCCCN1C(=O)c2ccccc2C1=O)Cc1ccccc1`, under 5%.
As to `CN(CCCCCN1C(=O)c2ccccc2C1=O)Cc1ccccc1`, the inhibition is under 5%.

For a further series, the target named is Acetylcholinesterase (Homo sapiens, UniProt P22303).
Acetylcholinesterase (Homo sapiens, UniProt P22303), sequence (P22303 whole entry): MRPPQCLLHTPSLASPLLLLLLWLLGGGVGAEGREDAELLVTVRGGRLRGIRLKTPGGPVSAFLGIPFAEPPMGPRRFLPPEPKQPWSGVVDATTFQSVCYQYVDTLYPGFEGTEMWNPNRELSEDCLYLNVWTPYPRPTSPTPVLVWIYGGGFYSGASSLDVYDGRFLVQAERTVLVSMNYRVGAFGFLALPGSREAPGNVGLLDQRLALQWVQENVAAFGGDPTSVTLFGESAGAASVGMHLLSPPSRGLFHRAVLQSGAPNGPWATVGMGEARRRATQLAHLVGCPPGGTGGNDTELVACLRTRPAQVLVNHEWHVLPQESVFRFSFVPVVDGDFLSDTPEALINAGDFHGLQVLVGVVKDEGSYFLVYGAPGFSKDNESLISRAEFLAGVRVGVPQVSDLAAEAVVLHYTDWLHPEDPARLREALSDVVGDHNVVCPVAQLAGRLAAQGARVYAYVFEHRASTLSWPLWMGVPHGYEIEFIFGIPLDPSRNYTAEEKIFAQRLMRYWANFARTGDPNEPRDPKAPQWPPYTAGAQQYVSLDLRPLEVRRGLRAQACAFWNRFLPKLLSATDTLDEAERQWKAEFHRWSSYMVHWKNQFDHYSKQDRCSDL
Conditions: not given
`CN(CCCCCCN1C(=O)c2ccccc2C1=O)Cc1ccccc1F`: half-maximal inhibition (IC50) required 1990 nM.
In the case of `CN(CCCCCCCN1C(=O)c2ccccc2C1=O)Cc1cccc(Cl)c1`, the midpoint of inhibition, the IC50, lay at 1300 nM.
The same measure, in the same setting: for `CN(CCCCCN1C(=O)c2ccccc2C1=O)Cc1ccccc1F` the value was 525 nM; for `CN(CCCCCCCCN1C(=O)c2ccccc2C1=O)Cc1cccc(Cl)c1`, 1040 nM.
`CN(CCCCCCCN1C(=O)c2ccccc2C1=O)Cc1ccccc1`: the IC50 came to 997 nM.
Take `CN(CCCCCCN1C(=O)c2ccccc2C1=O)Cc1cccc(Cl)c1`: the half-maximal inhibitory concentration (IC50) was 1190 nM.
Molecule `CN(CCCCCN1C(=O)c2ccccc2C1=O)Cc1cccc(Cl)c1` registered a half-inhibitory concentration (IC50) of 537 nM.
`CN(CCCCCCN1C(=O)c2ccccc2C1=O)Cc1ccccc1` came in with an IC50 of 1830 nM.
In the case of `CN(CCCCCCCCN1C(=O)c2ccccc2C1=O)Cc1ccccc1`, the IC50 is 860 nM.
The molecule `CN(CCCCCCCCN1C(=O)c2ccccc2C1=O)Cc1ccccc1F` registered an IC50 of 644 nM.
With `CN(CCCCCCCN1C(=O)c2ccccc2C1=O)Cc1ccccc1F`, 625 nM corresponded to half-maximal inhibition (IC50).
`CN(CCCCCN1C(=O)c2ccccc2C1=O)Cc1ccccc1` registered an IC50 of 361 nM.
